# Measured values published in patent US10414759B2, “Phenylthiazoles and uses thereof” (Purdue Research Foundation, priority 2017, dated 2019).
# Legend:
# [1] = system: MRSA (2658 RCMB); test: MIC against MRSA (2658 RCMB), broth dilution; type: cell-based, Staphylococcus aureus; details: Staphylococcus aureus; Table 7; initial screening, MRSA (2658 RCMB); read-out: minimum inhibitory concentration (MIC)
# Procedure: Bacteria were cultured in cation-adjusted Mueller Hinton broth in a 96-well plate. Compounds, using triplicate samples, were added to the plate and serially diluted. […] Plates were visually inspected and the MIC was categorized as the concentration at which no visible growth of bacteria was observed. The average of triplicate MIC determinations is reported.
# (§1) A bacterial solution equivalent to 0.5 McFarland standard was prepared and diluted in cation-adjusted Mueller-Hinton broth (CAMHB) to achieve a bacterial concentration of about 5×10^5 CFU/mL and seeded in 96-well plates. Enterococcus faecium was diluted in brain heart infusion broth. Enterococcus faecalis, Streptococcus pneumonia and Listeria monocytogenes were diluted in tryptone soya broth (TSB).
# [2] = system: S. aureus NRS107; test: MIC/MBC S. aureus strains (Table 8); type: cell-based, Staphylococcus aureus; details: Staphylococcus aureus; Table 8; S. aureus NRS107
# Procedure: as §1
# [3] = system: VRS10 (VRSA); test: MIC/MBC S. aureus strains (Table 8); type: cell-based; details: Staphylococcus aureus, Table 8, VRS10 (VRSA)
# Procedure: (§2) The minimum inhibitory concentration (MIC) of tested compounds and control antibiotics were determined using the broth microdilution method in accordance with the recommendations contained in the Clinical and Laboratory Standards Institute guidelines, against methicillin-sensitive (ATCC 6538 and NRS107), methicillin-resistant (MRSA), and vancomycin-resistant (VRSA) Staphylococcus aureus, Staphylococcus epidermidis, Enterococcus faecalis, E. faecium, Listeria monocytogenes, and Streptococcus pneumoniae clinical isolates. A bacterial solution equivalent to 0.5 McFarland standard was prepared and diluted in cation-adjusted Mueller-Hinton broth (CAMHB) to achieve a bacterial concentration of about 5×10^5 CFU/mL and seeded in 96-well plates. Enterococcus faecium was diluted in brain heart infusion broth. Enterococcus faecalis, Streptococcus pneumonia and Listeria monocytogenes were diluted in tryptone soya broth (TSB). Compounds and control drugs were added in the first row of 96-well plates and serially diluted (to achieve a concentration gradient ranging from 128 to 1 μg/mL). Plates were then incubated aerobically at 37° C. for at least 18 hours. The minimum bactericidal concentration (MBC) of the active compounds was tested by plating 5 μL from wells with no growth onto Tryptic soy agar (TSA) plates.
# [4] = system: VRS12 (VRSA); test: MIC/MBC S. aureus strains (Table 8); type: cell-based; details: Staphylococcus aureus, Table 8, VRS12 (VRSA)
# Procedure: as §2
# [5] = system: MRSA NRS119; test: MIC/MBC S. aureus strains (Table 8); type: cell-based; details: Staphylococcus aureus
# Procedure: as §1
# [6] = system: MRSA NRS386; test: MIC/MBC S. aureus strains (Table 8); type: cell-based; details: Staphylococcus aureus
# Procedure: as §1
# [7] = system: MRSA NRS123 (USA400); test: MIC/MBC S. aureus strains (Table 8); type: cell-based; details: Staphylococcus aureus
# Procedure: as §1
# [8] = system: MRSA NRS384 (USA300); test: MIC/MBC S. aureus strains (Table 8); type: cell-based; details: Staphylococcus aureus
# Procedure: as §1
# [9] = system: S. aureus ATCC 6538; test: MIC/MBC S. aureus strains (Table 8); type: cell-based; details: Staphylococcus aureus, ATCC6538
# Procedure: as §1
# [10] = system: MRSA NRS385; test: MIC/MBC S. aureus strains (Table 8); type: cell-based; details: Staphylococcus aureus
# Procedure: as §1
# [11] = system: MRSA (USA300); test: Time-kill assay; type: cell-based, Staphylococcus aureus; details: 3.0×MIC; for bactericidal / bacteriostatic behaviour in time-kill assay, in words: MRSA; for time to completely eradicate the MRSA inoculum: t-butyl series
# Procedure: Aliquots (100 μL) were taken from each sample after 2, 4, 6, 8, 10, 12, and 24 hours, serially diluted in phosphate-buffered saline, and transferred to Trypticase soy agar (TSA) (Becton, Dickinson and Company, Sparks, Md., USA) plates. Plates were incubated at 37° C. for at least 16 hours before counting viable CFU/mL to determine the time required to reduce the bacterial cell count by 3-log10.
# [12] = system: human colorectal (Caco-2) cell; test: In vitro cytotoxicity against Caco-2 cells (MTS); type: cell-based; details: at 32 μg/mL
# Procedure: Tested compounds were assayed (at concentrations of 16, 32, and 64 μg/mL) against a human colorectal (Caco-2) cell to determine the potential toxic effect to mammalian cells in vitro. Briefly, cells were cultured in Dulbecco's Modified Eagle Medium (DMEM) supplemented with 20% fetal bovine serum (FBS), non-essential amino acids (1×), and penicillin-streptomycin at 37° C. with CO2 (5%). Control cells received DMSO alone at a concentration equal to that in drug-treated cell samples. The cells were incubated with the compounds (in triplicate) in a 96-well plate at 37° C. with CO2 (5%) for two hours. The assay reagent MTS 3-(4,5-dimethylthiazol-2-yl)-5-(3-carboxymethoxyphenyl)-2-(4-sulfophenyl)-2H-tetrazolium) (Promega, Madison, Wis., USA) was subsequently added and the plate was incubated for four hours. Absorbance readings (at OD490) were taken using a kinetic microplate reader (Molecular Devices, Sunnyvale, Calif., USA). The quantity of viable cells after treatment with each compound was expressed as a percentage of the viability of DMSO-treated control cells (average of triplicate wells±standard deviation). The toxicity data was analyzed via a two-way ANOVA, with post hoc Sidak's multiple comparisons test (P<0.05), utilizing GraphPad Prism 6.0 (GraphPad Software, La Jolla, Calif.).
# [13] = system: Methicillin-resistant Staphylococcus epidermidis NRS101; test: MIC/MBC Gram-positive pathogens (Table 9); type: cell-based
# Procedure: as §1
# [14] = system: Enterococcus faecalis ATCC 51299 (VRE); test: MIC/MBC Gram-positive pathogens (Table 9); type: cell-based; details: Table 9; Enterococcus faecalis ATCC 51299 (VRE)
# Procedure: as §1
# [15] = system: Listeria monocytogenes ATCC 19111; test: MIC/MBC Gram-positive pathogens (Table 9); type: cell-based; details: ATCC19111; Table 9; Listeria monocytogenes ATCC 19111
# Procedure: as §1
# [16] = system: Enterococcus faecium ATCC 700221 (VRE); test: MIC/MBC Gram-positive pathogens (Table 9); type: cell-based; details: Table 9; Enterococcus faecium ATCC 700221 (VRE); read-out: MIC
# Procedure: as §2
MIC [1] [µg/mL],MIC [8] [µg/mL],MIC [9] [µg/mL],MIC [10] [µg/mL],MIC [13] [µg/mL],MIC [14] [µg/mL],MIC [16] [µg/mL],Compound,"bactericidal / bacteriostatic behaviour in time-kill assay, in words [11]",time to completely eradicate the MRSA inoculum [11],MBC [13] [µg/mL],also measured
1.17,8,8,8,8,8,8,"Cc1nc(-c2ccc(C(C)(C)C)cc2)sc1-c1ccnc(NC(=N)N(C)C)n1 [Compound 58, 3-(4-(2-(4-(tert-Butyl)phenyl)-4-methylthiazol-5-yl)pyrimidin-2-yl)-1,1-dimethylguanidine]",rapid bactericidal activity,within two to four hours,8,"MBC [2]: 8 µg/mL; MIC [2]: 8 µg/mL; MBC ([3]; read-out: MBC): 8 µg/mL; MIC ([3]; read-out: MIC): 8 µg/mL; MBC ([4]; read-out: MBC): 8 µg/mL; MIC ([4]; read-out: MIC): 8 µg/mL; MBC [5]: 8 µg/mL; MIC [5]: 8 µg/mL; MBC [6]: 8 µg/mL; MIC [6]: 8 µg/mL; MBC [7]: 8 µg/mL; MIC [7]: 8 µg/mL; MBC [8]: 8 µg/mL; MBC [9]: 8 µg/mL; MBC [10]: 8 µg/mL; tolerability to human colorectal cells, in words [12]: intolerable; MBC [15]: 8 µg/mL; MIC [15]: 8 µg/mL"
1.17,4,4,4,4,4,4,"Cc1nc(-c2ccc(C(C)(C)C)cc2)sc1-c1ccnc(NC(=N)N2CCOCC2)n1 [Compound 61, N-(4-(2-(4-(tert-Butyl)phenyl)-4-methylthiazol-5-yl)pyrimidin-2-yl) morpholine-4-carboximidamide]",rapid bactericidal activity,within two to four hours,4,–
